Assay results reported in patent publication US20140148606A1, “ANTI-TUMOR EFFECTS OF ALLOSTERIC FOCAL ADHESION KINASE INHIBITOR, METHYL VIOLET DERIVATIVES” (Korea Institute of Science and Technology, priority 2012, published 2014).

Legend:
full-length FAK = biological target: T1, full-length FAK (Homo sapiens, UniProt Q05397); assay: FAK biochemical kinase assay (LANCE Ultra TR-FRET); conditions: for dependence of kinase inhibitory activity against full-length FAK on the concentration of ATP: methyl violet 2B at 2.7 μM, FIG. 2
T1 construct: purchased Signalchem
T1 sequence (Q05397 whole entry): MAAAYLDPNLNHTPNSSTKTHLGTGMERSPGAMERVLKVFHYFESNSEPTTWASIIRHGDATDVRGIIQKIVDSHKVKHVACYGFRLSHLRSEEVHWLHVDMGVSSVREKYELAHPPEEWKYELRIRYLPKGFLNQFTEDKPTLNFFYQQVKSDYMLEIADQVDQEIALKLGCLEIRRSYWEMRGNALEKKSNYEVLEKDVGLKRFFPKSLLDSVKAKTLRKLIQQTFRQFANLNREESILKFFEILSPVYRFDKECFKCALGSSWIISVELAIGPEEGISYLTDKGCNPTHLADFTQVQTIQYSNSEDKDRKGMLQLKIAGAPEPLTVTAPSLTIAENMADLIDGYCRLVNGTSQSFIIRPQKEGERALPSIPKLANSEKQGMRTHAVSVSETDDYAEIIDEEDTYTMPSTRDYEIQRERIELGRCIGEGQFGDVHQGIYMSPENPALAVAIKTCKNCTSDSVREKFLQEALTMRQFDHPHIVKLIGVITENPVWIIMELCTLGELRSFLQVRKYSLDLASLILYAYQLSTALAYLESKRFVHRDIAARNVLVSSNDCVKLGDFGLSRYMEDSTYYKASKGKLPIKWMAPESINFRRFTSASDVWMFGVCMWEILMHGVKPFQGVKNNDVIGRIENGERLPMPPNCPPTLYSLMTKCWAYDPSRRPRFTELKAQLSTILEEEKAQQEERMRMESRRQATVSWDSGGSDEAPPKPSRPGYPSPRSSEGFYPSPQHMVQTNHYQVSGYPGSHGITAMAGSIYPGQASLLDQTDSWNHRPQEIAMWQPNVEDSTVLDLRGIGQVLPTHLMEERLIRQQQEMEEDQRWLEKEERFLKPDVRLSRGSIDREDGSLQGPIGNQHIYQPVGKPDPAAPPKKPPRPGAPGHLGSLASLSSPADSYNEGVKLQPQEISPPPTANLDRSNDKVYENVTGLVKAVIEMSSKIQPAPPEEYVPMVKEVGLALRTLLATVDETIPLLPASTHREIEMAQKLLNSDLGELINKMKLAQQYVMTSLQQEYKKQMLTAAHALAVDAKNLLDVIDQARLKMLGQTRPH
Protocol: Kinase reactions were performed at room temperature in lysis buffer (50 mM HEPES pH 7.5, 1 mM EGTA, 10 mM MgCl2, 2 mM DTT and 0.01% Tween-20) with 0.3 nM FAK (Signalchem), 100 nM ULight-poly GT (PerkinElmer), 10 μM ATP, and various concentrations (10 fold serial dilution, 6 points) of test compounds at a final volume of 10 μL. After 1 h, the kinase reaction was stopped by adding 10 mM EDTA and progressed by incubating the reaction mixture at room temperature for 5 min. To the mixture was added Detection Mix (Eu-anti-phospho-Tyr (PT66)) antibody to a final concentration of 2 nM and incubated for 1 h at room temperature. The plates were covered before being read using an EnVision® Multilabel reader in TR-FRET mode (excitation at 320 nm and emission at 665 nm, PerkinElmer).

A375P cells [1] = assay: Migration (wound healing) assay, Ibidi Culture-Insert; type: cell-based, human; conditions: 1 nM, 48 h
Protocol: Migration of the A375P cells was assessed by using the Culture-Inserts (Ibidi) according to the manufacturer's protocol. The cells were plated at a density of 1×10^5 cells/well in each well of Culture-Inserts. After 24 h incubation, the Culture-Inserts were removed, and wounds were created by using a 500-μm thick wall. The dish containing these cells was treated with medium containing the compound and incubated at 37° C. for 48 h. Phase-contrast images of the closed gap wound were captured using a microscope.

p-JNK = assay: Western analysis, JNK phosphorylation in A375P cells; type: cell-based, human; conditions: 10 nM, 48 h
Protocol: (§1) After incubating with the test compound for 48 h, both adherent and floating cancer cells were collected. The cells were lysed on ice in lysis buffer (50 mM Tris, pH 7.4, 150 mM NaCl, 1 mM EDTA, 1% NP-40, 0.25% sodium deoxycholate) supplemented with phosphatase inhibitors (Sigma #P2850, #5726; Phosphatase Inhibitor Cocktail I & II) and protease inhibitors (Complete, Mini, EDTA-free; Roche Applied Science) for 20 min. The protein concentration was determined using the Bio-Rad Protein assay reagent (Bio-Rad #500-0006). The lysate was centrifuged at 13000 rpm at 4° C. for 20 min. 50 μg of total proteins were mixed with […] (50 mM Tris-HCl (pH 6.8), 2% SDS, 10% 2-mercaptoethanol, 10% glycerol, and 0.002% bromophenol blue), boiled for 5 min, and subjected to a 10% SDS polyacrylamide gel electrophoresis. The proteins were electrophoresed onto nitrocellulose membranes and detected with antibodies against FER, FAK, DOCK180, Pyk2, Paxillin, AKT, GSK3, PTEN, JNK, ERK, Bcl-2, C-raf and Actin and against phosphorylated FER Tyr402, FAK Tyr925, Tyr861, Tyr577, Tyr576, Tyr397, Pyk2 Tyr402, Paxillin Tyr118, AKT S473, T308, GSK3β S9, JNK, ERK, Bad, C-raf and ERM T567, T564, T558 followed by the addition of horseradish peroxidase (HRP)-conjugated secondary antibodies and 3,3-diaminobenzidine tetrahydrochloride (DAB) as the HRP substrate.

PTEN = assay: Western analysis, PTEN level in A375P cells; type: cell-based, human; conditions: 48 h
Protocol: as §1

AKT = assay: Western analysis, AKT phosphorylation in A375P cells; type: cell-based, human; conditions: 1 nM, 48 h
Protocol: as §1

FAK = assay: Western analysis, FAK phosphorylation in A375P cells; type: cell-based, human; conditions: 0.1-10 nM, 48 h
Protocol: as §1

p-Bad = assay: Western analysis, Bad phosphorylation; type: cell-based, human; conditions: compared to Bcl-2
Protocol: as §1

C-raf = assay: Western analysis, C-raf phosphorylation; type: cell-based, human
Protocol: as §1

GSK3β S9 = assay: Western analysis, GSK3β phosphorylation in A375P cells; type: cell-based, human; conditions: dose-dependent, 48 h
Protocol: as §1

A375P cells [2] = assay: QCM ECMatrix Cell Invasion Assay; type: cell-based, human; conditions: 1 nM, 48 h
Protocol: Invasion of A375P cells was assessed by using the QCM ECMatrix Cell Invasion Assay (Chemicon, Millipore, Calif.) according to the manufacturer's protocol. The cells were plated on the membrane of the upper chamber of the transwell at a concentration of 2.5×10^5 cells/well in 500 μL of serum-free medium. The medium in the lower chamber contained the test compound and 10% fetal bovine serum. The cells that passed through the polycarbonate membrane were stained with cell stain solution supplied in the Transwell Invasion assay (Chemicon, Millipore, Calif.) and photographed after 48 h of incubation. The invasion was quantitated by dissolving the stained cells in 10% acetic acid and transferring a consistent amount of the dye/solute mixture to a 96-well plate for colorimetric reading of OD at 560 nm.

Balb/c = assay: Anti-proliferative activity assay (MTT / CellTiter-Glo); type: cell-based; conditions: Mus musculus, fibroblast, read-out: IC50 (nM), proliferation
Protocol: (§2) Melanoma cells (A375P, A375SM) and breast cancer cells (MDA-MB-231, MCF7) were maintained in DMEM medium (Welgene, Daegu, Korea). Colorectal cancer cells (HCT116, HT29), lung cancer cells (A549) and prostate cancer cells (DU145) were grown in RPMI1640 medium (Welgene). NIH3T3 and Balb/c cells were cultured in DMEM/F12 medium (Welgene).
(§3) Each medium was supplemented with 10% FBS (Welgene) and 1% penicillin/streptomycin (Welgene) in a humidified atmosphere with 5% CO2 at 37° C. A375P cells were purchased from the American Type Culture Collection (ATCC, Rockville, Md., US), and A375SM, MDA-MB-231, MCF7, HCT116, HT29, A549, DU145, NIH3T3 and Balb/c were purchased from the Korean Cell Line Bank (Seoul, Korea).
(§4) Cells were taken from culture substrate with 0.05% trypsin-0.02% EDTA and plated at a density of 5×10^3 cells/well in 96 well plates and then incubated at 37° C. for 24 h in a humidified atmosphere with 5% CO2 prior to treatment of various concentration (tenfold serial dilution, 6 steps) of test compounds. The cell viability was assessed by the conventional 3-(4,5-dimethylthiazol-2-yl)-2,5-diphenyltetrazolium bromide (MTT) reduction assay and luminescent assay. The MTT and luminescent assays were carried out with CellTiter 96® and CellTiter-Glo® Luminescent Cell Viability Assay (Promega, Wis., USA) according to the manufacturer's instructions. The absorbance at 590 nm was recorded using EnVision2103 (PerkinElmer; Boston, Mass., US). The IC50 value was calculated using the GraphPad Prism 4.0 software.

HCT116 = assay: as above; type: cell-based; conditions: Homo sapiens, HCT-116; HCT116, colon; read-out: IC50 (nM), proliferation
Protocol: as §2, §3, §4

DU145 = assay: as above; type: cell-based; conditions: Homo sapiens, DU-145; DU145, prostate; read-out: IC50 (nM), proliferation
Protocol: as §2, §3, §4

NIH3T3 = assay: as above; type: cell-based; conditions: Mus musculus; NIH3T3, fibroblast; read-out: IC50 (nM), proliferation
Protocol: as §2, §3, §4

MCF7 = assay: as above; type: cell-based; conditions: Homo sapiens; MCF7, breast; read-out: IC50 (nM), proliferation
Protocol: as §2, §3, §4

A549 = assay: as above; type: cell-based; conditions: Homo sapiens; A549, lung; read-out: IC50 (nM), proliferation
Protocol: as §2, §3, §4

MDA-MB-231 = assay: as above; type: cell-based; conditions: Homo sapiens; MDA-MB-231, breast; read-out: IC50 (nM), proliferation
Protocol: as §2, §3, §4

A375P = assay: as above; type: cell-based; conditions: Homo sapiens, skin, read-out: IC50 (nM), proliferation
Protocol: as §2, §3, §4

A375SM = assay: as above; type: cell-based; conditions: Homo sapiens, A375-SM, skin, read-out: IC50 (nM), proliferation
Protocol: as §2, §3, §4

HT29 = assay: as above; type: cell-based; conditions: Homo sapiens, HT-29; HT29, colon; read-out: IC50 (nM), proliferation
Protocol: as §2, §3, §4

Bcl-2 = assay: Western analysis, Bcl-2 expression; type: cell-based, human; conditions: concentrations >1 nM, concentration-dependent
Protocol: as §1

p-ERK = assay: Western analysis, ERK phosphorylation in A375P cells; type: cell-based, human; conditions: 10 nM, 48 h
Protocol: as §1

FER Tyr402 = assay: Western analysis, FER phosphorylation in A375P cells; type: cell-based, human; conditions: 10 nM, 48 h
Protocol: as §1

CNC(=O)c1ccccc1Nc1nc(Nc2ccc(N3CCOCC3)cc2OC)ncc1Cl [TAE226, reference compound]
dependence of kinase inhibitory activity against full-length FAK on the concentration of ATP (full-length FAK): inversely proportional to the concentration of ATP

CN=C1C=CC(=C(c2ccc(N(C)C)cc2)c2ccc(N(C)C)cc2)C=C1.Cl [methyl violet 2B]
IC50 (full-length FAK; 10 μM ATP, LANCE Ultra kinase assay): 2700 nM | dependence of kinase inhibitory activity against full-length FAK on the concentration of ATP (full-length FAK): independent of the concentration of ATP | cancer cell (A375P) motility / migration (A375P cells [1]): suppresses | inhibitory effect against p-JNK (p-JNK): strong inhibitory effect | level of PTEN (PTEN): not altered | inhibition of p-AKT Ser473 (AKT): dramatically inhibits | inhibition of p-AKT Thr308 (AKT): dramatically inhibits | inhibitory effect on phosphorylation of FAK Tyr925, Tyr861 and Tyr577 (FAK): much greater than that of Y576 and Y397 | effect on p-Bad (p-Bad): less effective | phosphorylation of C-raf (C-raf): did not affect | phosphorylation of GSK3β S9 (GSK3β S9): significantly blocked | invasion of the A375P cells (A375P cells [2]): dose-dependent decrease | IC50 (Balb/c): 59400 nM | IC50 (HCT116): 36.9 nM | IC50 (DU145): 81.5 nM | IC50 (NIH3T3): 938 nM | IC50 (MCF7): 69.7 nM | IC50 (A549): 45.6 nM | IC50 (MDA-MB-231): 13.4 nM | IC50 (A375P): 19.6 nM | IC50 (A375SM): 34.1 nM | IC50 (HT29): 18.1 nM | expression of the anti-apoptotic molecule Bcl-2 (Bcl-2): significantly suppressed | inhibitory effect against p-ERK (p-ERK): strong inhibitory effect | inhibition of phosphorylation of FER Tyr402 (FER Tyr402): significantly inhibits
